Laboratory results reported in patent US20220362353A1, “DRUG COMBINATION FOR PREVENTING OR TREATING IRRITABLE BOWEL SYNDROME” (GUANGZHOU CENTURY CLINICAL RESEARCH CO., LTD, priority 2019, published 2022).

Key:
[1] = test system: irritable bowel syndrome model animals; experiment: Electromyography (EMG) test of external oblique abdominal muscles after colorectal distension; format: in vivo, SD rats (Sprague-Dawley rats); conditions: for AUC (%) of EMG of colorectal distension at different pressures (mean ± SD): 3 months old, after 1-month daily gavage, normalized to average baseline amplitude (100%)
Description: In this example, the irritable bowel syndrome model was induced by daily applying colorectal distension as a stimulating factor to neonatal SD rats (Sprague-Dawley rats) from 8 days old to 21 days old. This model animal had visceral hypersensitivity of irritable bowel syndrome and without colonitis and mucosal injury. Colorectal distension stimulation was not given any more from 21 days old to 8 weeks old. A test drug or placebo was administered daily by gavage from 8 weeks old to 3 months old. On the 8 weeks old (before the beginning of the 1-month drug administration period) and about 3 months old (after the end of the 1-month drug administration period), behavioral and neural responses of rats to colorectal distention stimulation were tested by an abdominal wall withdrawal reflex test and an electromyography test. 8-day-old neonatal male SD rats with normal body weight were exposed to a 12:12 hr light-dark cycle. Every 12 neonatal rats and 1 adult female rat were co-bred with rat milk until 25 days old. Then every 4 neonatal rats were fed in the same cage, and they were allowed to eat and drink freely. The SD rats were randomly divided into a normal control group, a model group, a dosmalfate group, a lysozyme group, a first combination group (a dosage ratio of dosmalfate to lysozyme was 0.05:1), a second combination group (a dosage ratio of dosmalfate to lysozyme was 0.1:1), a third combination group (a dosage ratio of dosmalfate to lysozyme was 10:1), and a fourth combination group (a dosage ratio of dosmalfate to lysozyme was 20:1), and 12 animals were assigned to each group. Except for normal control group, colorectal distension (CRD) stimulation was applied to the rats in other groups every day from 8 days old to 21 days old to induce irritable bowel syndrome. The concrete operation method was as follows: a flexible balloon (with a polytetrafluoroethylene catheter; the balloon should be inflated overnight before the experiment so that it has better compliance) made of the fingers of surgical gloves, was smeared with vaseline, inserted from the anus of the rat to the colon and then fixed at the tail distanced away from the anus by 2 cm. The balloon was connected with a valve via the catheter, and the valve was additionally connected with a sphygmomanometer. Rats were placed in small plastic cages to restrict their turning and acclimatized for 30 minutes. The balloon was slowly inflated to 60 mm Hg with the sphygmomanometer, and deflated after stimulation for 20 seconds; the stimulation was repeated twice within 1 hour (with an interval of 30 minutes each time). Except for normal control group and model group, test drugs (wetted in 0.5% sodium carboxymethyl cellulose solution) were administrated to the rats in the other groups by gavage daily from 8 weeks old to 3 months old, and the dosage was 8 ml. The visceral hypersensitivity (neural response) of rats to colorectal distension was quantified by measuring the electromyographic activity of external oblique abdominal muscles. When the rats in each group were 3 months old (after the end of the 1-month drug administration period), they were subjected to abdominal wall withdrawal reflex test followed by EMG test after abdominal wall withdrawal reflex test. On the second day when 3-month-old rats in each group were subjected to abdominal wall withdrawal reflex test, an appropriate amount of pentobarbital solution (50 mg/ml) was injected into the abdominal cavities of the rats, and the rats were fully anesthetized. The hairs on the lower abdomen and the back of the neck were cut, a needle electrode (tungsten microelectrode) was implanted into the left side of the abdomen of the rat, fixed in the muscle layer of the external oblique abdominal muscle, and the electrode wire was crossed through the subcutaneous of the left side of the rat to a small incision at the rear neck and out of the small incision. […]

[2] = test system: irritable bowel syndrome model animals; experiment: Abdominal withdrawal reflex (AWR) test after colorectal distension; format: in vivo, SD rats (Sprague-Dawley rats); conditions: for Abdominal withdrawal reflex scores of colorectal distension at different pressures (mean ± SD): 3 months old, after 1-month daily gavage, score 0-4
Description: In this example, the irritable bowel syndrome model was induced by daily applying colorectal distension as a stimulating factor to neonatal SD rats (Sprague-Dawley rats) from 8 days old to 21 days old. This model animal had visceral hypersensitivity of irritable bowel syndrome and without colonitis and mucosal injury. Colorectal distension stimulation was not given any more from 21 days old to 8 weeks old. A test drug or placebo was administered daily by gavage from 8 weeks old to 3 months old. On the 8 weeks old (before the beginning of the 1-month drug administration period) and about 3 months old (after the end of the 1-month drug administration period), behavioral and neural responses of rats to colorectal distention stimulation were tested by an abdominal wall withdrawal reflex test and an electromyography test. 8-day-old neonatal male SD rats with normal body weight were exposed to a 12:12 hr light-dark cycle. Every 12 neonatal rats and 1 adult female rat were co-bred with rat milk until 25 days old. Then every 4 neonatal rats were fed in the same cage, and they were allowed to eat and drink freely. The SD rats were randomly divided into a normal control group, a model group, a dosmalfate group, a lysozyme group, a first combination group (a dosage ratio of dosmalfate to lysozyme was 0.05:1), a second combination group (a dosage ratio of dosmalfate to lysozyme was 0.1:1), a third combination group (a dosage ratio of dosmalfate to lysozyme was 10:1), and a fourth combination group (a dosage ratio of dosmalfate to lysozyme was 20:1), and 12 animals were assigned to each group. Except for normal control group, colorectal distension (CRD) stimulation was applied to the rats in other groups every day from 8 days old to 21 days old to induce irritable bowel syndrome. The concrete operation method was as follows: a flexible balloon (with a polytetrafluoroethylene catheter; the balloon should be inflated overnight before the experiment so that it has better compliance) made of the fingers of surgical gloves, was smeared with vaseline, inserted from the anus of the rat to the colon and then fixed at the tail distanced away from the anus by 2 cm. The balloon was connected with a valve via the catheter, and the valve was additionally connected with a sphygmomanometer. Rats were placed in small plastic cages to restrict their turning and acclimatized for 30 minutes. The balloon was slowly inflated to 60 mm Hg with the sphygmomanometer, and deflated after stimulation for 20 seconds; the stimulation was repeated twice within 1 hour (with an interval of 30 minutes each time). Except for normal control group and model group, test drugs (wetted in 0.5% sodium carboxymethyl cellulose solution) were administrated to the rats in the other groups by gavage daily from 8 weeks old to 3 months old, and the dosage was 8 ml. The abdominal wall withdrawal reflex test was used to detect behavioral responses of rats to colorectal distension stimulation. This test was performed when rats in respective groups were 8 weeks old (before the start of the 1-month drug administration period) and 3 months old (after the end of the 1-month drug administration period). The rats were fasted overnight before undergoing the abdominal wall withdrawal reflex test, so as to reduce gastrointestinal contents. During the test, a flexible balloon (with a thin-walled polytetrafluoroethylene catheter; the balloon should be inflated overnight before the experiment so that it has better compliance) made of the fingers of surgical gloves, was smeared with vaseline and inserted from the anus of the rat by 7 cm to the colon and fixed at the caudal point by 2 cm distanced away from the anus. The balloon was connected with the valve via the catheter, and the valve was additionally connected with a sphygmomanometer. Rats were placed in small plastic cages to restrict their turning and acclimatized for 30 minutes. […]

Row | Substance | AUC (%) of EMG of colorectal distension at different pressures (mean ± SD) ([1]; 20 mm Hg) [%] | AUC (%) of EMG of colorectal distension at different pressures (mean ± SD) ([1]; 40 mm Hg) [%] | AUC (%) of EMG of colorectal distension at different pressures (mean ± SD) ([1]; 60 mm Hg) | EMG test result compared with model group, in words ([1]; after administration) | Abdominal withdrawal reflex scores of colorectal distension at different pressures (mean ± SD) ([2]; 20 mm Hg) | Abdominal withdrawal reflex scores of colorectal distension at different pressures (mean ± SD) ([2]; 40 mm Hg) | Abdominal withdrawal reflex scores of colorectal distension at different pressures (mean ± SD) ([2]; 60 mm Hg) | abdominal wall withdrawal reflex values compared with model group, in words ([2]; after administration)
1 | Lysozyme | 303 ± 36 | 394 ± 60 | 601 ± 60 ^ % | no significant difference | 2.11 ± 0.33 | 2.69 ± 0.41 | 3.56 ± 0.36 | no significant difference
2 | diosmin heptadiene (bisulfate) aluminum complex [Dosmalfate, reference compound] | 332 ± 39 | 445 ± 99 | 644 ± 117 ^ % | – | 2.25 ± 0.45 | 2.56 ± 0.30 | 3.64 ± 0.30 | –
